Measurements reported in paper PMC11885506, “Evaluation of a non-animal toolbox informed by adverse outcome pathways for human inhalation safety” (Frontiers in Toxicology, 2025).
Structures can show the parent of a compound that is named as a salt.

Tests used:
MucilAir™-HF tissues [1] = test: Mucin-5AC (Muc5AC) immunohistochemistry, goblet cells, MucilAir-HF model; type: cell-based, human; conditions: for Increase in cells expressing Muc5AC protein: 30 min/day
Description: (§1) Tissues were handled as recommended by manufacturer’s instruction.
The presence of goblet cells was assessed through immunohistochemistry analysis for mucin-5AC protein (Muc5AC) detection. IL-13 and cytomix were used as positive controls (see item 2.5.2 for additional details). On last day of experiment (day 12), cultures (n = 3 tissues/group) were rinsed in PBS and fixed by immersion in 4% formaldehyde for 20 min. Fixed tissues were embedded into paraffin, sectioned, and processed for staining on paraffin sections. The immunostaining of the sections was performed with the Benchmark automated platform (Ventana-Roche, Hoffmann-La Roche Ltd, Basel, Switzerland) and the Autostainer Link 48 (Agilent, Santa Clara, CA. United States) with the detection kit Ultraview DAB (DAB chromogeny, Hoffmann-La Roche Ltd). Sections were pre-treated using heat mediated antigen retrieval with sodium citrate buffer, pH 6, for 20 min. The section was then incubated with recombinant anti-mucin 5AC antibody (ab3649, Abcam) for 1 h at room temperature, followed by biotinylated secondary antibody (Dako) and HRP detection (HRP conjugated ABC system, Vector Laboratories), according to manufacturer’s instruction. The section was then counterstained with hematoxylin (Sigma-Aldrich) and mounted with DPX, a synthetic non-aqueous mounting medium for microscopy. Digital images of the slides were then acquired, and quantitative image analysis performed using Image Pro Plus 6.2 (Media Cybernetics) to quantify the goblet cells on a section. The whole images of stained sections were scanned, and an average 15 images/section were analysed. The results are the ratio between the mucin 5AC stained area and the total surface area of the epithelium on the section.

MucilAir™-HF model = test: Bioactivity exposure ratio (BER): lowest in vitro PoD of MucilAir-HF readouts / upper respiratory tract exposure estimate
Description: Concentration and time-dependent changes in the bioactivity readout data were analyzed using a nonlinear state space model, based on the work of [Svensson and Schön (2017)]. […] All bioactivity readouts were included in the analysis (where available), i.e., measurements for tissue integrity loss (TEER) and functionality (MCC, CBF, and mucin secretion), cytokine/chemokine secretion, and the transcriptional LV values obtained using PLIER. The datasets were grouped so that a single state space model was used to capture all the responses (across time, concentration, and test material) for a single readout obtained within a particular study (laboratory/tissue model). Data were transformed to the log base 10 scale and normalized using z-scores, so that for a given readout Ytij from a laboratory/tissue model, the corresponding normalized value was given by y^tij=⁡log⁡10(Ytij)−μ)/σ . Here, the indexes i,j,t correspond to the different test materials, concentrations and timepoints, μ and σ are the sample mean and standard deviation of the control readout values obtained for the first timepoint. All measurement were then scaled so that the maximum median value across different replicates was one for all timepoints, readouts and test materials within a given laboratory/tissue model.
The model consists of state variables xti,j , response variables ytij and the concentrations of material c^i,j . The response variables yti,j represent the normalized (see below) readout values at timepoint t for material exposure i,j . The mean of the response variable is given by xti,j , so that yti,j∼xti,j+et , where et represents random fluctuations in the readout values, due to observational noise, which are taken to be normally distributed. Dynamical changes in state values are given by xti,j=fxt−1i,j,cti,j+vt . […] For each state space model representing a particular laboratory/readout dataset, SMC simulation was run for three chains at 5,000 iterations each, and first 1,000 iterations were discarded from the final posterior samples. […]

MucilAir™-HF tissues [2] = test: Mucin secretion measurement (enzyme-linked lectin assay), MucilAir-HF model; type: cell-based, human
Description: as §1
Mucin production was quantified using an enzyme-linked lectin assay, following a protocol previously published ([Rossner et al., 2019]).

[3] = system: primary human nasal epithelial cells; set-up: method as in Uchenna Agu et al., 1999; conditions: 10^-5 and 10^-3 M for 30-45 min; ref Uchenna Agu et al., 1999; cited from earlier work
16HBE14 o^− cells = conditions: cited from earlier work
MucilAir™-HF tissues [4] = test: Cytokine and chemokine measurements (Luminex), MucilAir-HF model; type: cell-based, human; conditions: MucilAir-HF, 30 min/day exposure
Description: as §1
Basolateral medium samples of the tissue cultures were collected and stored at −80°C until analysis. The following cytokines/chemokines were quantified using customized Human Luminex® Discovery Assay kits (R&D Systems): chemokine (C-C motif) ligand (CCL) 2, CCL7, CCL26, C-X-C motif chemokine ligand (CXCL) 10, CXCL11, intercellular adhesion molecule-1 (ICAM-1), IL-1α, IL-6, IL-8, matrix metalloproteinase (MMP)-1, MMP-2, MMP-3, MMP-7, MMP-9, osteopontin, interferon (IFN)-γ, IL-1 receptor antagonist (IL-1Ra), urokinase-type plasminogen activator receptor (uPAR), tumour necrosis factor (TNF)-α, urokinase (uPA), serpin E1, tissue inhibitor of metalloproteinase 1 (TIMP-1), and TGF-β1. Samples were measured in technical triplicates according to the manufacturer’s recommendation using a Luminex Bio-Plex® 200 RUO System ([…]).

NCI-H292 cells = conditions: 1 µM for 48h; ref Matsuyama et al., 2018; cited from earlier work
[5] = 30 min/day exposure, day 12, High 1 concentration (third of the tested concentrations), average ± standard deviation
[6] = 30 min/day exposure, day 12, Low concentration (first of the tested concentrations), average ± standard deviation
[7] = 30 min/day exposure, day 12, Medium concentration (second of the tested concentrations), average ± standard deviation

BER_min (MucilAir™-HF model; Scenario1, Day 8) | BER_min (MucilAir™-HF model; Scenario1, Day 12) | Compound | % of Muc5AC area (MucilAir™-HF tissues [1]; [5]) | % of Muc5AC area (MucilAir™-HF tissues [1]; [6]) | % of Muc5AC area (MucilAir™-HF tissues [1]; [7]) | % of Muc5AC area (MucilAir™-HF tissues [1]; 6 h/day exposure, day 12, single tested concentration, average ± standard deviation) | MinPoD (MucilAir™-HF tissues [2]; Day 8, biomarker Mucins) | MinPoD (MucilAir™-HF tissues [2]; Day 12, biomarker Mucins) | CBF [3] | IL-8 levels (16HBE14 o^− cells; 1-30 nM for 18h, 16HBE cells, ref Lindén, 1996) | IL-6 and IL-8 release (16HBE14 o^− cells; 10-100 nM for 24h, ref Oehme et al., 2015) | Cytokines/chemokines modulated (in words) (MucilAir™-HF tissues [4]) | MUC5AC mRNA expression (NCI-H292 cells) | Increase in cells expressing Muc5AC protein (MucilAir™-HF tissues [1]; 50 μM) | Increase in cells expressing Muc5AC protein (MucilAir™-HF tissues [1]; 100 μM) | Increase in cells expressing Muc5AC protein compared to unexposed tissues (MucilAir™-HF tissues [1]; positive control IL-13 at 10 ng/mL) | % of Muc5AC area (MucilAir™-HF tissues [1]; positive controls via liquid basal exposure, 30 min/day column, day 12, average ± standard deviation)
30691.6 | 24110.2 | O=c1ccc2ccccc2o1 [Coumarin] | 3.29 ± 0.36% | 5.09 ± 0.57% | 6.83 ± 1.07% | 2.85 ± 0.43% | 6.056 μg/cm2 | 4.8708 μg/cm2 |  |  |  |  |  |  |  |  | 
 |  | CC(C)NCC(O)c1ccc(O)c(O)c1 (centres unmarked) [Isoproterenol, Isoproterenol hydrochloride] | 18.91 ± 3.09% | 8.78 ± 1.62% | 15.53 ± 1.41% |  |  |  | maximally and irreversibly increased ciliary CBF | IL-8 levels were also increased | significant increase of IL-6 and IL-8 release | downregulation of MMP-7 only | significant increase in MUC5AC mRNA expression | 2.5 fold | 3 fold |  | 
 |  | IL-13: goblet cell hyper-, metaplasia agent used as positive control at 10 ng/mL |  |  |  |  |  |  |  |  |  |  |  |  |  | 4 fold | 26.35 ± 3.34%
